Results reported in US10378021B2, “Plant CO2 sensors, nucleic acids encoding them, and methods for making and using them” (The Regents of the University of California, priority 2007, dated 2019).

Experiments:
Arabidopsis guard cells = conditions: loaded into Arabidopsis guard cells; cited from earlier work
[1] = tested on: wild-type leaf epidermis stomata; assay: CO2-induced stomatal movements in leaf epidermis treated with carbonic anhydrase inhibitor; type: cell-based, Arabidopsis thaliana; conditions: wild-type leaf epidermis treated for 30 min
[2] = tested on: wild-type Arabidopsis thaliana plants; assay: Norflurazon bleaching of leaves and CO2-induced stomatal movements in albino leaves; type: in vivo
Description: To further analyze whether intact photosynthesis is required for CO2 regulation of stomatal movements, another approach was carried out.
FIG. 13A illustrates an image of chlorophyll-deficient albino wild-type leaves devoid of functional chloroplasts were generated by application of the carotenoid biosynthesis inhibitor norflurazon. The absence of chlorophyll in albino guard cells compared to wild-type was visualized by confocal microscopy (FIG. 13B graphically illustrates data) and quantified by image analysis of the chlorophyll fluorescence intensity (FIG. 13C graphically illustrates data) (n=3, 12 stomata/sample.). FIG. 13D graphically illustrates data showing CO2-induced stomatal movements in albino versus control plant leaves (n=7, 50 stomata/sample). Error bars depict means±s.e.m.

[3] = tested on: ca1ca4 leaf epidermis stomata; assay: abscisic acid-induced stomatal closing in leaf epidermis; type: cell-based, Arabidopsis thaliana
Description: FIG. 10A illustrates stomata in ca1ca4 double mutant leaves close in response to abscisic acid; n=3 experiments, 30 stomata/experiment and condition. Error bars depict means±s.e.m. FIG. 10B illustrates CO2-induced stomatal movements are impaired in ca1ca4 double mutant leaves and in wild-type leaf epidermis treated with the carbonic anhydrase inhibitor 6-ethoxy-2-benzothiazolesulphonamide (EZA) (n=6, 30 stomata/sample); see e.g., Becker et al., 2007.
To determine whether the impaired CO2 responses in intact leaves (see FIG. 9C, FIG. 9D, FIG. 9E) are linked to stomatal movements, CO2 responses were analyzed in leaf epidermis. CO2-induced stomatal movements were impaired in ca1ca4 as compared to wild-type, as illustrated in FIG. 10B. Furthermore, when wild-type leaf epidermis were treated for 30 min with the membrane-permeable CA inhibitor EZA (see, e.g., Becker et al., 2007), CO2-induced stomatal opening and closing were inhibited, which correlates with a role for carbonic anhydrases in CO2 sensing, rather than a long-term developmental effect of CA gene disruption on the rapid CO2 response, as illustrated in FIG. 10B.

## O=C(O)CN(CC(=O)O)c1ccccc1OCCOc1ccccc1N(CC(=O)O)CC(=O)O [BAPTA]
Arabidopsis guard cells
  spontaneous calcium transients in guard cells: effectively inhibits

## CCOc1ccc2nc(S(N)(=O)=O)sc2c1 [EZA, 6-ethoxy-2-benzothiazolesulphonamide]
[1]
  CO2-induced stomatal opening and closing: inhibited

## CNc1cnn(-c2cccc(C(F)(F)F)c2)c(=O)c1Cl [Norflurazon]
[2]; albino leaves without functional chloroplasts
  stomatal CO2 response to both high and low [CO2] in intact leaves: not affected
[2]; watering 3 to 4 week-old wild-type plants
  leaf phenotype of newly emerging leaves: albino chlorophyll-deficient wild-type leaves devoid of functional chloroplasts

## CC1=CC(=O)CC(C)(C)[C@@]1(O)/C=C/C(C)=C\C(=O)O [abscisic acid]
[3]
  ABA-induced stomatal closing: completely functional
